Laboratory results taken from patent US12281363B2, “Methods for detecting antiviral-drug resistant virus” (Secretary of State for Health and Social Care, priority 2018, dated 2025).
Read-outs that look alike come from different tables or passages of the source.

Test system: HSV-2
Assay: Plaque reduction assay, HSV-2 clinical isolates on Vero cells
Type: cell-based
Conditions: Human alphaherpesvirus 2, Vero
From the text: Viral isolates were used to infect a sub-confluent monolayer of Vero cells at a concentration of 75 or 50 plaque forming units (PFU) per well for HSV-1 and HSV-2, respectively. […] CMC medium typically used to create a semisolid interface and prevents indiscrimate viral spreading. Other materials (e.g. agar) may also be used to create this interface.
Cells were fixed with 10% formalin and stained with crystal violet before enumeration of the plaques (microscopic observation or use of fluorescent antibodies for detection is also suitable). The data obtained from these experiments were then expressed as percent inhibition of viral infectivity relative to the no drug control.
Definitions of phenotypic drug susceptibility classification as sensitive or resistant were as follows: ACV, <3 μM or >40 μM; PCV, <10 μM or >40 μM; CDV, <24 μM or >30 μM; FOS, <250 μM or >400 μM; and ACV, <6.5 μM or >40 μM; PCV, <38 μM or >40 μM; FOS, <250 μM or >400 μM for HSV-1 and HSV-2, respectively. Any IC50 values falling in between these sensitive and resistant cut-offs were reported as intermediate resistance.
The phenotype (i.e. reactivity to a drug) of the virus was characterised by the plaque reduction assay as described above. The present inventors have characterised the resistance-causing phenotype of a large number of TK and DNA pol mutations.

Measured: IC50

Nc1nc2c(ncn2CCC(CO)CO)c(=O)[nH]1 [Penciclovir, penciclovir]
26.9 µM: isolate HPG022, HSV-2 TK E213D (639A>C), read-out: Drug susceptibility (IC50 value) | isolate HPG022, HSV-2 pol D174Y (520G>T), read-out: Drug susceptibility (IC50 value)
> 40 µM: isolate HPG004, HSV-2 pol M494T (1481T>C), also pol S729N, read-out: Drug susceptibility Penciclovir (PCV) | isolate HPG007, HSV-2 pol R628G (1882C>G), read-out: Drug susceptibility Penciclovir (PCV) | isolate HPG017, HSV-2 TK Q186H (558G>T), read-out: Drug susceptibility Penciclovir (PCV) | isolate HPG028, HSV-2 TK 98stop or A94fs (276delG, 278delG, 279delG, or 280delG), read-out: Drug susceptibility Penciclovir (PCV) | isolate HPG028, HSV-2 pol E776Q (2326G>C), also TK deletion (G) nt 276-280, read-out: Drug susceptibility Penciclovir (PCV) | isolate HPG028, HSV-2 pol R775C, R775W (2323C>T; 2325C>G), also TK deletion (G) nt 276-280, read-out: Drug susceptibility Penciclovir (PCV) | isolate HPG030, HSV-2 TK Q90stop (268C>T), read-out: Drug susceptibility Penciclovir (PCV) | isolate HPG030, HSV-2 pol E761K (2281G>A), also TK Q90stop, read-out: Drug susceptibility Penciclovir (PCV) | isolate HPG034, HSV-2 TK L313S (938A>C), read-out: Drug susceptibility Penciclovir (PCV) | isolate HPG036, HSV-2 TK E84K (250G>A), read-out: Drug susceptibility Penciclovir (PCV) | isolate HPG044, HSV-2 TK M86L (256A>C), read-out: Drug susceptibility Penciclovir (PCV) | isolate HPG048, HSV-2 TK Q90stop (268C>T), read-out: Drug susceptibility Penciclovir (PCV) | isolate HPG048, HSV-2 pol E761K (2281G>A), also TK Q90stop, read-out: Drug susceptibility Penciclovir (PCV) | isolate HPG057, HSV-2 TK 98stop or A94fs (276delG, 278delG, 279delG, or 280delG), read-out: Drug susceptibility Penciclovir (PCV) | isolate HPG058, HSV-2 TK 183stop or P154fs (458delC, 459delC, 460delC, or 461delC), read-out: Drug susceptibility Penciclovir (PCV)
9.64 µM: isolate HPG038, HSV-2 TK R34C (100C>T), read-out: Drug susceptibility (IC50 value)
64.7 µM: isolate HPG017, HSV-2 TK Q186H (558G>T), read-out: Drug susceptibility (IC50 value)
31.1 µM: isolate HPG023, HSV-2 TK Q186H (558G>T), read-out: Drug susceptibility (IC50 value)
8.61 µM: read-out: Drug susceptibility (IC50 value), isolate HPG056, HSV-2 pol M447L (1339A>C)
8.2 µM: isolate HPG001, HSV-2 TK A125T (373G>A), read-out: Drug susceptibility (IC50 value) | isolate HPG001, HSV-2 pol H714R (2141A>G), read-out: Drug susceptibility (IC50 value)
9.08 µM: isolate HPG024, HSV-2 TK E213D (639A>C), read-out: Drug susceptibility (IC50 value)
< 38 µM: isolate HPG001, HSV-2 TK A125T (373G>A), read-out: Drug susceptibility Penciclovir (PCV) | isolate HPG001, HSV-2 pol H714R (2141A>G), read-out: Drug susceptibility Penciclovir (PCV) | isolate HPG022, HSV-2 TK E213D (639A>C), read-out: Drug susceptibility Penciclovir (PCV) | isolate HPG022, HSV-2 pol D174Y (520G>T), read-out: Drug susceptibility Penciclovir (PCV) | isolate HPG023, HSV-2 TK Q186H (558G>T), read-out: Drug susceptibility Penciclovir (PCV) | isolate HPG024, HSV-2 TK E213D (639A>C), read-out: Drug susceptibility Penciclovir (PCV) | isolate HPG038, HSV-2 TK R34C (100C>T), read-out: Drug susceptibility Penciclovir (PCV) | read-out: Drug susceptibility Penciclovir (PCV), isolate HPG056, HSV-2 pol M447L (1339A>C)
> 160 µM: isolate HPG004, HSV-2 pol M494T (1481T>C), also pol S729N, read-out: Drug susceptibility (IC50 value) | isolate HPG007, HSV-2 pol R628G (1882C>G), read-out: Drug susceptibility (IC50 value) | isolate HPG028, HSV-2 TK 98stop or A94fs (276delG, 278delG, 279delG, or 280delG), read-out: Drug susceptibility (IC50 value) | isolate HPG028, HSV-2 pol E776Q (2326G>C), also TK deletion (G) nt 276-280, read-out: Drug susceptibility (IC50 value) | isolate HPG028, HSV-2 pol R775C, R775W (2323C>T; 2325C>G), also TK deletion (G) nt 276-280, read-out: Drug susceptibility (IC50 value) | isolate HPG030, HSV-2 TK Q90stop (268C>T), read-out: Drug susceptibility (IC50 value) | isolate HPG030, HSV-2 pol E761K (2281G>A), also TK Q90stop, read-out: Drug susceptibility (IC50 value) | isolate HPG036, HSV-2 TK E84K (250G>A), read-out: Drug susceptibility (IC50 value) | isolate HPG044, HSV-2 TK M86L (256A>C), read-out: Drug susceptibility (IC50 value) | isolate HPG048, HSV-2 TK Q90stop (268C>T), read-out: Drug susceptibility (IC50 value) | isolate HPG048, HSV-2 pol E761K (2281G>A), also TK Q90stop, read-out: Drug susceptibility (IC50 value) | isolate HPG057, HSV-2 TK 98stop or A94fs (276delG, 278delG, 279delG, or 280delG), read-out: Drug susceptibility (IC50 value) | isolate HPG058, HSV-2 TK 183stop or P154fs (458delC, 459delC, 460delC, or 461delC), read-out: Drug susceptibility (IC50 value) | read-out: Drug susceptibility (IC50 value), isolate HPG034, HSV-2 TK L313S (938A>C)
